{"source": "the supplement of paper PMC10307832", "assay_in_all_cases": "relative viability (nuclei count vs DMSO), 5 days (fraction); higher = more cells survive", "key": {"Irinotecan + Bortezomib": {"compound": "CCc1c2c(nc3ccc(OC(=O)N4CCC(N5CCCCC5)CC4)cc13)-c1cc3c(c(=O)n1C2)COC(=O)[C@]3(O)CC [Irinotecan] + CC(C)C[C@H](NC(=O)[C@H](Cc1ccccc1)NC(=O)c1cnccn1)B(O)O [Bortezomib] (partner 0.002 µM)", "summary_of_the_method": "(§1)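 Nuclei were stained with Hoechst during a one-step fixation (final 0.05% Triton X-100, 1% formaldehyde, 1 ug/ml Hoechst) carried out 5 days after dosing, then counted on 4× images. The cells, lung cancer lines in 1536-well plates, had been dosed by pin tool the day after seeding with one drug alone or a fixed anchor-drug dose plus five library-drug doses (not always all listed) in √10 steps. Relative viability is the nuclei count in treated wells divided by that in vehicle wells, and each value is the median of duplicate plates.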"}, "Irinotecan + Tozasertib": {"compound": "CCc1c2c(nc3ccc(OC(=O)N4CCC(N5CCCCC5)CC4)cc13)-c1cc3c(c(=O)n1C2)COC(=O)[C@]3(O)CC [Irinotecan] + Cc1cc(Nc2cc(N3CCN(C)CC3)nc(Sc3ccc(NC(=O)C4CC4)cc3)n2)n[nH]1 [Tozasertib] (partner 0.1 µM)", "summary_of_the_method": "as §1"}, "MK-8033 + Navitoclax": {"compound": "Cn1cc(-c2cnc3ccc4ccc(CS(=O)(=O)NCc5ccccn5)cc4c(=O)c3c2)cn1 [MK-8033] + CC1(C)CCC(c2ccc(Cl)cc2)=C(CN2CCN(c3ccc(C(=O)NS(=O)(=O)c4ccc(N[C@H](CCN5CCOCC5)CSc5ccccc5)c(S(=O)(=O)C(F)(F)F)c4)cc3)CC2)C1 [Navitoclax] (partner 0.5 µM)", "summary_of_the_method": "as §1"}, "MK-8033 + Pemetrexed": {"compound": "Cn1cc(-c2cnc3ccc4ccc(CS(=O)(=O)NCc5ccccn5)cc4c(=O)c3c2)cn1 [MK-8033] + Nc1nc2[nH]cc(CCc3ccc(C(=O)N[C@@H](CCC(=O)O)C(=O)O)cc3)c2c(=O)[nH]1 [Pemetrexed] (partner 0.2 µM)", "summary_of_the_method": "as §1"}}, "data": [{"cell line": "NCI-H2087", "values": [{"measurement": "relative viability", "setting": "Irinotecan + Bortezomib; first compound 0.6325 µM", "result": 0.442}, {"measurement": "relative viability", "setting": "Irinotecan + Bortezomib; first compound 2 µM", "result": 0.476}, {"measurement": "relative viability", "setting": "Irinotecan + Bortezomib; first compound 6.325 µM", "result": 0.18}, {"measurement": "relative viability", "setting": "Irinotecan + Bortezomib; first compound 20 µM", "result": 0.248}, {"measurement": "relative viability", "setting": "Irinotecan + Tozasertib; first compound 0.6325 µM", "result": 0.184}, {"measurement": "relative viability", "setting": "Irinotecan + Tozasertib; first compound 2 µM", "result": 0.239}, {"measurement": "relative viability", "setting": "Irinotecan + Tozasertib; first compound 6.325 µM", "result": 0.36}, {"measurement": "relative viability", "setting": "Irinotecan + Tozasertib; first compound 20 µM", "result": 0.192}, {"measurement": "relative viability", "setting": "MK-8033 + Navitoclax; first compound 0.02 µM", "result": 1.1}, {"measurement": "relative viability", "setting": "MK-8033 + Navitoclax; first compound 0.06325 µM", "result": 0.877}, {"measurement": "relative viability", "setting": "MK-8033 + Navitoclax; first compound 0.2 µM", "result": 0.916}, {"measurement": "relative viability", "setting": "MK-8033 + Navitoclax; first compound 0.6325 µM", "result": 1}, {"measurement": "relative viability", "setting": "MK-8033 + Navitoclax; first compound 2 µM", "result": 1.05}, {"measurement": "relative viability", "setting": "MK-8033 + Pemetrexed; first compound 0.02 µM", "result": 0.622}, {"measurement": "relative viability", "setting": "MK-8033 + Pemetrexed; first compound 0.06325 µM", "result": 0.714}, {"measurement": "relative viability", "setting": "MK-8033 + Pemetrexed; first compound 0.2 µM", "result": 0.629}, {"measurement": "relative viability", "setting": "MK-8033 + Pemetrexed; first compound 0.6325 µM", "result": 0.578}, {"measurement": "relative viability", "setting": "MK-8033 + Pemetrexed; first compound 2 µM", "result": 0.674}]}, {"cell line": "ChaGo-K-1", "values": [{"measurement": "relative viability", "setting": "Irinotecan + Bortezomib; first compound 2 µM", "result": 1.05}, {"measurement": "relative viability", "setting": "Irinotecan + Bortezomib; first compound 6.325 µM", "result": 0.46}, {"measurement": "relative viability", "setting": "Irinotecan + Bortezomib; first compound 20 µM", "result": 0.379}, {"measurement": "relative viability", "setting": "Irinotecan + Tozasertib; first compound 0.6325 µM", "result": 0.216}, {"measurement": "relative viability", "setting": "Irinotecan + Tozasertib; first compound 2 µM", "result": 0.205}, {"measurement": "relative viability", "setting": "Irinotecan + Tozasertib; first compound 6.325 µM", "result": 0.193}, {"measurement": "relative viability", "setting": "Irinotecan + Tozasertib; first compound 20 µM", "result": 0.218}, {"measurement": "relative viability", "setting": "MK-8033 + Navitoclax; first compound 0.02 µM", "result": 1.2}, {"measurement": "relative viability", "setting": "MK-8033 + Navitoclax; first compound 0.06325 µM", "result": 0.962}, {"measurement": "relative viability", "setting": "MK-8033 + Navitoclax; first compound 0.2 µM", "result": 0.945}, {"measurement": "relative viability", "setting": "MK-8033 + Navitoclax; first compound 0.6325 µM", "result": 1.04}, {"measurement": "relative viability", "setting": "MK-8033 + Navitoclax; first compound 2 µM", "result": 0.922}, {"measurement": "relative viability", "setting": "MK-8033 + Pemetrexed; first compound 0.02 µM", "result": 0.251}, {"measurement": "relative viability", "setting": "MK-8033 + Pemetrexed; first compound 0.06325 µM", "result": 0.223}, {"measurement": "relative viability", "setting": "MK-8033 + Pemetrexed; first compound 0.2 µM", "result": 0.253}, {"measurement": "relative viability", "setting": "MK-8033 + Pemetrexed; first compound 0.6325 µM", "result": 0.267}, {"measurement": "relative viability", "setting": "MK-8033 + Pemetrexed; first compound 2 µM", "result": 0.262}]}, {"cell line": "LXF-289", "values": [{"measurement": "relative viability", "setting": "Irinotecan + Bortezomib; first compound 0.6325 µM", "result": 0.896}, {"measurement": "relative viability", "setting": "Irinotecan + Bortezomib; first compound 2 µM", "result": 0.987}, {"measurement": "relative viability", "setting": "Irinotecan + Bortezomib; first compound 6.325 µM", "result": 0.263}, {"measurement": "relative viability", "setting": "Irinotecan + Bortezomib; first compound 20 µM", "result": 0.205}, {"measurement": "relative viability", "setting": "Irinotecan + Tozasertib; first compound 0.6325 µM", "result": 0.185}, {"measurement": "relative viability", "setting": "Irinotecan + Tozasertib; first compound 2 µM", "result": 0.179}, {"measurement": "relative viability", "setting": "Irinotecan + Tozasertib; first compound 6.325 µM", "result": 0.112}, {"measurement": "relative viability", "setting": "Irinotecan + Tozasertib; first compound 20 µM", "result": 0.174}, {"measurement": "relative viability", "setting": "MK-8033 + Navitoclax; first compound 0.02 µM", "result": 0.945}, {"measurement": "relative viability", "setting": "MK-8033 + Navitoclax; first compound 0.06325 µM", "result": 0.928}, {"measurement": "relative viability", "setting": "MK-8033 + Navitoclax; first compound 0.2 µM", "result": 0.923}, {"measurement": "relative viability", "setting": "MK-8033 + Navitoclax; first compound 0.6325 µM", "result": 0.979}, {"measurement": "relative viability", "setting": "MK-8033 + Navitoclax; first compound 2 µM", "result": 0.941}, {"measurement": "relative viability", "setting": "MK-8033 + Pemetrexed; first compound 0.02 µM", "result": 0.963}, {"measurement": "relative viability", "setting": "MK-8033 + Pemetrexed; first compound 0.06325 µM", "result": 0.874}, {"measurement": "relative viability", "setting": "MK-8033 + Pemetrexed; first compound 0.2 µM", "result": 0.901}, {"measurement": "relative viability", "setting": "MK-8033 + Pemetrexed; first compound 0.6325 µM", "result": 0.883}, {"measurement": "relative viability", "setting": "MK-8033 + Pemetrexed; first compound 2 µM", "result": 0.837}]}, {"cell line": "LC-2-ad", "values": [{"measurement": "relative viability", "setting": "Irinotecan + Bortezomib; first compound 0.6325 µM", "result": 0.688}, {"measurement": "relative viability", "setting": "Irinotecan + Bortezomib; first compound 2 µM", "result": 0.286}, {"measurement": "relative viability", "setting": "Irinotecan + Bortezomib; first compound 6.325 µM", "result": 0.167}, {"measurement": "relative viability", "setting": "Irinotecan + Bortezomib; first compound 20 µM", "result": 0.128}, {"measurement": "relative viability", "setting": "Irinotecan + Tozasertib; first compound 0.6325 µM", "result": 0.439}, {"measurement": "relative viability", "setting": "Irinotecan + Tozasertib; first compound 2 µM", "result": 0.437}, {"measurement": "relative viability", "setting": "Irinotecan + Tozasertib; first compound 6.325 µM", "result": 0.343}, {"measurement": "relative viability", "setting": "Irinotecan + Tozasertib; first compound 20 µM", "result": 0.233}, {"measurement": "relative viability", "setting": "MK-8033 + Navitoclax; first compound 0.02 µM", "result": 0.519}, {"measurement": "relative viability", "setting": "MK-8033 + Navitoclax; first compound 0.06325 µM", "result": 0.328}, {"measurement": "relative viability", "setting": "MK-8033 + Navitoclax; first compound 0.2 µM", "result": 0.398}, {"measurement": "relative viability", "setting": "MK-8033 + Navitoclax; first compound 0.6325 µM", "result": 0.383}, {"measurement": "relative viability", "setting": "MK-8033 + Navitoclax; first compound 2 µM", "result": 0.413}, {"measurement": "relative viability", "setting": "MK-8033 + Pemetrexed; first compound 0.02 µM", "result": 0.298}, {"measurement": "relative viability", "setting": "MK-8033 + Pemetrexed; first compound 0.06325 µM", "result": 0.273}, {"measurement": "relative viability", "setting": "MK-8033 + Pemetrexed; first compound 0.2 µM", "result": 0.264}, {"measurement": "relative viability", "setting": "MK-8033 + Pemetrexed; first compound 0.6325 µM", "result": 0.268}, {"measurement": "relative viability", "setting": "MK-8033 + Pemetrexed; first compound 2 µM", "result": 0.276}]}, {"cell line": "NCI-H2085", "values": [{"measurement": "relative viability", "setting": "Irinotecan + Bortezomib; first compound 0.6325 µM", "result": 0.847}, {"measurement": "relative viability", "setting": "Irinotecan + Bortezomib; first compound 2 µM", "result": 1.01}, {"measurement": "relative viability", "setting": "Irinotecan + Bortezomib; first compound 6.325 µM", "result": 0.535}, {"measurement": "relative viability", "setting": "Irinotecan + Bortezomib; first compound 20 µM", "result": 0.494}, {"measurement": "relative viability", "setting": "Irinotecan + Tozasertib; first compound 0.6325 µM", "result": 0.843}, {"measurement": "relative viability", "setting": "Irinotecan + Tozasertib; first compound 2 µM", "result": 0.726}, {"measurement": "relative viability", "setting": "Irinotecan + Tozasertib; first compound 6.325 µM", "result": 0.505}, {"measurement": "relative viability", "setting": "Irinotecan + Tozasertib; first compound 20 µM", "result": 0.51}, {"measurement": "relative viability", "setting": "MK-8033 + Navitoclax; first compound 0.02 µM", "result": 1.03}, {"measurement": "relative viability", "setting": "MK-8033 + Navitoclax; first compound 0.06325 µM", "result": 1.03}, {"measurement": "relative viability", "setting": "MK-8033 + Navitoclax; first compound 0.2 µM", "result": 1.1}, {"measurement": "relative viability", "setting": "MK-8033 + Navitoclax; first compound 0.6325 µM", "result": 1.13}, {"measurement": "relative viability", "setting": "MK-8033 + Navitoclax; first compound 2 µM", "result": 1.14}, {"measurement": "relative viability", "setting": "MK-8033 + Pemetrexed; first compound 0.02 µM", "result": 0.722}, {"measurement": "relative viability", "setting": "MK-8033 + Pemetrexed; first compound 0.06325 µM", "result": 0.767}, {"measurement": "relative viability", "setting": "MK-8033 + Pemetrexed; first compound 0.2 µM", "result": 0.862}, {"measurement": "relative viability", "setting": "MK-8033 + Pemetrexed; first compound 0.6325 µM", "result": 0.874}, {"measurement": "relative viability", "setting": "MK-8033 + Pemetrexed; first compound 2 µM", "result": 0.875}]}]}
